The source of these data is ChEMBL document CHEMBL1201862, “PubChem BioAssay data set” (2004).

SMILES strings stand for the structures.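 Compound exposure: 48 hours, 5 concentrations, 96-well plates. GI50 is the concentration that inhibits growth by half.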 Calls of active or inactive are those of the source. Cut-off read from the data, not from the text of the source: active = GI50 up to about 1.1 µM and inactive = higher. Some results are limits rather than exact numbers.

Among the test systems are MDA-MB-231; OVCAR-5; ACHN; U-251; NCI-H460; HT-29; TK-10; LOX IMVI; A549; SF-268; M14; SF-539; HOP-92; MCF7; UACC-62; HCC 2998; SW-620; A498; KM12; LXFL 529.
Holding throughout (assay): NCI anticancer screen, dose series, 48 h

With `Cc1[nH]n(-c2ccccc2)c(=O)c1C(N(CCc1ccccc1)C1=NCC(C)S1)(C(F)(F)F)C(F)(F)F` (configuration not stated), the GI50 with MDA-MB-231 is 18.8 µM (inactive); in the test on OVCAR-5, 8.65 µM (inactive); in the test on ACHN, 16.2 µM (inactive); in the test on U-251 it was 7.41 µM (inactive); with NCI-H460, 13.9 µM (inactive); in the test on HT-29, 17.8 µM (inactive). Also, the GI50 in the test on TK-10 was 16.3 µM (inactive); in the test with LOX IMVI, 0.164 µM (active); in the test with A549, 15.1 µM (inactive); in the test on SF-268 it was 21.4 µM (inactive); with M14 it was 11.6 µM (inactive); in the test with SF-539 it was 16.7 µM (inactive). For the same molecule, the GI50 with HOP-92 is 0.352 µM (active); with MCF7 it was 10.7 µM (inactive); with UACC-62, 8.71 µM (inactive); in the test with HCC 2998, 13.4 µM (inactive); with SW-620 it was 18.1 µM (inactive); in the test with A498, 11.9 µM (inactive). The GI50 in the test on KM12 was 13.1 µM (inactive).
Turning to `O=C(NCCCN1CCN(CCCNC(=O)c2cc(-c3ccccc3)nc3ccccc23)CC1)c1cc(-c2ccccc2)nc2ccccc12`, the GI50 with MDA-MB-231 is 26.1 µM (inactive); in the test with OVCAR-5 it was 29.6 µM (inactive); in the test with ACHN, 15.4 µM (inactive); with U-251 it was 12.5 µM (inactive); in the test with NCI-H460 it was 9.2 µM (inactive); in the test with HT-29, 3.63 µM (inactive). Also, the GI50 is 27.3 µM (inactive) in the test with TK-10; 2.86 µM (inactive) in the test with LOX IMVI; 20.6 µM (inactive) in the test with A549; > 38.5 µM (inactive) in the test with SF-268; 2.28 µM (inactive) in the test on M14; 15.2 µM (inactive) with SF-539. Also, the GI50 in the test on HOP-92 is 5.6 µM (inactive); with MCF7, 9.53 µM (inactive); in the test on UACC-62, 15.9 µM (inactive); in the test on HCC 2998 it was 2.88 µM (inactive); in the test with SW-620, 9.71 µM (inactive); with A498, 33.9 µM (inactive). The GI50 in the test on KM12 was 26.3 µM (inactive).
For the molecule `COC(=O)N/N=C(/CCC(=O)Nc1ccc(C)c(C)c1)CC(=O)C(C)(C)C`, the GI50 with OVCAR-5, in the test on ACHN, in the test on U-251, in the test on NCI-H460, in the test on HT-29 and in the test on TK-10 was > 100 µM (inactive) each time. In addition, the GI50 in the test with LOX IMVI, in the test with A549, with LXFL 529, in the test with SF-268, in the test on M14 and with SF-539 was > 100 µM (inactive) each time. In addition, the GI50 in the test on UACC-62, in the test with HCC 2998, in the test with SW-620 and with KM12 was > 100 µM (inactive) each time.
Take `Nc1ccc(Oc2ccc(C3(c4ccc(Oc5ccc(N)c(O)c5)cc4)C4CC5C6CC7CC5C3C(C7)C6C4)cc2)cc1O`: the GI50 in the test with MDA-MB-231 is 1.89 µM (inactive); in the test on OVCAR-5, 1.31 µM (inactive); in the test on ACHN, 1.75 µM (inactive); with U-251, 1.81 µM (inactive); in the test with NCI-H460, 2.41 µM (inactive); in the test on HT-29 it was 1.91 µM (inactive). Also, the GI50 in the test on TK-10 was 3.15 µM (inactive); in the test on LOX IMVI, 2.1 µM (inactive); with A549, 1.56 µM (inactive); in the test with SF-268, 2.72 µM (inactive); in the test with M14, 1.45 µM (inactive); in the test on SF-539, 2.61 µM (inactive). Also, the GI50 with HOP-92 was 1.77 µM (inactive); with MCF7 it was 1.69 µM (inactive); with UACC-62, 4.02 µM (inactive); in the test with HCC 2998 it was 1.85 µM (inactive); in the test with SW-620, 2.18 µM (inactive); in the test with A498 it was 2.55 µM (inactive). Further, the GI50 in the test with KM12 was 1.86 µM (inactive).
`COc1cc2oc(-c3ccc4c(c3)OCO4)c(OC)c(=O)c2c(O)c1OC`: the GI50 is 45.4 µM (inactive) in the test on MDA-MB-231; > 50 µM (inactive) with OVCAR-5; > 50 µM (inactive) in the test with ACHN; 18.9 µM (inactive) in the test with U-251; > 50 µM (inactive) with NCI-H460; > 50 µM (inactive) with HT-29. For the same molecule, the GI50 with TK-10 is > 50 µM (inactive); in the test with LOX IMVI it was > 50 µM (inactive); with A549, > 50 µM (inactive); in the test with SF-268, 29.4 µM (inactive); in the test with M14, > 50 µM (inactive); in the test on SF-539, > 50 µM (inactive). Besides, the GI50 was 22.8 µM (inactive) in the test with HOP-92; > 50 µM (inactive) with MCF7; > 50 µM (inactive) with UACC-62; > 50 µM (inactive) in the test with HCC 2998; > 50 µM (inactive) with SW-620; > 50 µM (inactive) in the test with A498. In the test on KM12, the GI50 is > 50 µM (inactive).
Turning to `COc1ccccc1NC1=NCC(C)S1` (configuration not stated), the GI50 in the test on MDA-MB-231, with OVCAR-5, in the test on ACHN, in the test on U-251, with NCI-H460 and in the test with HT-29 was > 100 µM (inactive) in each case. Moreover, the GI50 in the test with TK-10, in the test with LOX IMVI, in the test on A549, in the test on SF-268, with M14 and in the test with SF-539 was > 100 µM (inactive) in each case. Moreover, the GI50 in the test on HOP-92, in the test on MCF7, in the test on UACC-62, in the test on HCC 2998, in the test with SW-620 and in the test on A498 was > 100 µM (inactive) in each case. Also, the GI50 with KM12 is > 100 µM (inactive).
With `CC1(C)CCCCCCC2OC2CCCCCC(C)(C)C1=O` (configuration not stated), the GI50 in the test with MDA-MB-231 was 29.9 µM (inactive); with OVCAR-5, > 62.1 µM (inactive); with ACHN it was 30.8 µM (inactive); in the test with U-251, 24.3 µM (inactive); in the test on NCI-H460 it was 36.1 µM (inactive); in the test on HT-29, 25.9 µM (inactive). Besides, the GI50 is > 100 µM (inactive) in the test with TK-10; > 67.8 µM (inactive) in the test with LOX IMVI; 39.3 µM (inactive) in the test on A549; 50.2 µM (inactive) in the test with SF-268; 32.8 µM (inactive) in the test with M14; > 94.8 µM (inactive) with SF-539. In addition, the GI50 with HOP-92 is 27 µM (inactive); with MCF7 it was 26.4 µM (inactive); with UACC-62, 19 µM (inactive); in the test with HCC 2998, 40.6 µM (inactive); in the test on SW-620, 52.4 µM (inactive); in the test on A498, > 84.9 µM (inactive). For the same molecule, in the test on KM12, the GI50 was 27.8 µM (inactive).
On to `O=C1C(Cl)C(c2cc(Br)cc(Br)c2O)N1n1cnc2ccccc2c1=O` (configuration not stated), for which the GI50 in the test on OVCAR-5 was 19.4 µM (inactive); in the test on ACHN it was 28.2 µM (inactive); in the test on U-251 it was 6.35 µM (inactive); with NCI-H460, 12.6 µM (inactive); with HT-29, 36.1 µM (inactive); in the test on TK-10 it was 46.5 µM (inactive). Further, the GI50 with LOX IMVI was 14.1 µM (inactive); in the test with A549, 65.9 µM (inactive); in the test with LXFL 529, 21 µM (inactive); with SF-268, 10.7 µM (inactive); with M14 it was 18.3 µM (inactive); with UACC-62, 19.2 µM (inactive). Moreover, the GI50 was 30.2 µM (inactive) with HCC 2998, 35.8 µM (inactive) in the test with SW-620 and 25.1 µM (inactive) with KM12.
In the case of `CCOC(=O)N1CCN(c2nc(C)n(-c3ccccc3)c(=S)c2C#N)CC1`, the GI50 with MDA-MB-231 was 23.4 µM (inactive); with OVCAR-5, > 100 µM (inactive); with ACHN, > 65 µM (inactive); in the test with U-251 it was 75.3 µM (inactive); in the test on NCI-H460, 52.7 µM (inactive); with HT-29 it was > 100 µM (inactive). Also, the GI50 in the test with TK-10 was > 81.1 µM (inactive); in the test on LOX IMVI it was > 61.9 µM (inactive); in the test on A549, 97.9 µM (inactive); with SF-268, 63.1 µM (inactive); in the test with M14 it was > 91 µM (inactive); in the test with SF-539, > 83.4 µM (inactive). Further, the GI50 in the test on HOP-92 was > 65.9 µM (inactive); with MCF7, > 48.9 µM (inactive); with UACC-62 it was > 43.6 µM (inactive); with HCC 2998 it was > 100 µM (inactive); in the test on SW-620, > 63.4 µM (inactive); in the test on A498 it was > 100 µM (inactive). For the same molecule, the GI50 with KM12 is > 83.8 µM (inactive).
For the molecule `CC(C)=CCC[C@@H](C)C1=C(O)C(=O)C(C)=C(Nc2ccccc2)C1=O`, the GI50 was 22.5 µM (inactive) with MDA-MB-231; 52.4 µM (inactive) in the test with OVCAR-5; 13.5 µM (inactive) with ACHN; 12.5 µM (inactive) with U-251; 13.3 µM (inactive) in the test with NCI-H460; 31.3 µM (inactive) with HT-29. For the same molecule, the GI50 in the test with TK-10 was 29 µM (inactive); in the test with LOX IMVI, 20.6 µM (inactive); in the test with A549, 16.9 µM (inactive); in the test on SF-268, 19.8 µM (inactive); in the test on M14, 14.9 µM (inactive); with SF-539 it was 26 µM (inactive). Also, the GI50 is 23.5 µM (inactive) in the test with HOP-92; 24.5 µM (inactive) with MCF7; 13 µM (inactive) in the test on UACC-62; 45.1 µM (inactive) with HCC 2998; 22.8 µM (inactive) in the test with SW-620; 20 µM (inactive) with A498. The GI50 in the test with KM12 was 22.8 µM (inactive).
For `OC1(c2ccc(Cl)cc2)c2ccccc2-c2nc3ccccc3n21` (configuration not stated), the GI50 in the test with MDA-MB-231 was > 100 µM (inactive); with OVCAR-5, > 100 µM (inactive); in the test on ACHN, > 100 µM (inactive); in the test with U-251 it was > 100 µM (inactive); with NCI-H460 it was 65.8 µM (inactive); in the test with HT-29, 72.6 µM (inactive). Also, the GI50 in the test on TK-10 was > 100 µM (inactive); in the test with LOX IMVI, > 100 µM (inactive); in the test on A549, 52.7 µM (inactive); with SF-268, > 100 µM (inactive); in the test with M14 it was > 100 µM (inactive); in the test on SF-539, > 100 µM (inactive). The GI50 in the test on HOP-92 is > 100 µM (inactive); with MCF7, 95.3 µM (inactive); with UACC-62 it was > 100 µM (inactive); with HCC 2998, 74 µM (inactive); with SW-620 it was > 100 µM (inactive); with A498 it was > 100 µM (inactive). The GI50 with KM12 is > 100 µM (inactive).
